The values below come from BindingDB's records for doi:10.1016/j.bmcl.2014.03.017 (Alcon Laboratories, 2014).

The assay in a line: Inhibition of ROCK-2 in human GTM3 cells measured up to 2 days by cell impedance assay.
`CN(C)CC(O)CN1CCN(c2nc(-c3ccncc3)cnc2N2CCCC2)CC1` (configuration not stated): the EC50 is 1500 nM. For `CC(=O)NCC(O)CN1CCN(c2nc(-c3ccncc3)cnc2N2CCCC2)CC1` (configuration not stated) the value was 1700 nM; for `CC(=O)NCCCN1CCN(c2nc(-c3ccncc3)cnc2N2CCCC2)CC1`, 760 nM. The same measure for `c1nc(N2CCCC2)c(N2CCCNCC2)nc1-c1cc2cn[nH]c2cn1`: 416 nM; for `c1cc2[nH]ncc2cc1-c1cncc(N2CCCNCC2)n1`: 260 nM; for `Cc1n[nH]c2ccc(-c3cncc(N4CCCNCC4)n3)cc12`: 380 nM. For `OCCN1CCN(c2nc(-c3ccncc3)cnc2N2CCCC2)CC1` [2-(4-(6-(pyridin-4-yl)-3-(pyrrolidin-1-yl)pyrazin-2-yl)piperazin-1-yl)ethanol] the value was 680 nM.

Usually EC50 stands for the concentration needed to bring the measured effect to its halfway point. High values mean lower potency in that assay, low ones higher potency in that assay.
